Assay results from ChEMBL document CHEMBL4219219, “The synthesis and antistaphylococcal activity of N-sulfonaminoethyloxime derivatives of dehydroabietic acid” (Bioorg Med Chem Lett, 2018).
Converted amounts (≈) assume the structure as drawn. The source made the active and inactive calls. No cut-off for these calls is given here.

Key:
Staphylococcus aureus [1] = test: Antistaphylococcal activity against Staphylococcus aureus Newman after 18 hrs by two-fold serial dilution method; format: functional
Escherichia coli = test: Antibacterial activity against Escherichia coli AB1157 at 50 ug/ml after 18 hrs by two-fold serial dilution method; format: functional, organism-based
Staphylococcus aureus [2] = test: Antistaphylococcal activity against aminoglycosides/tetracycline-resistant Staphylococcus aureus NRS-1 after 18 hrs by two-fold serial dilution method; format: functional; conditions: NRS-1, 18 h
Staphylococcus aureus [3] = test: Antistaphylococcal activity against linezolid-resistant Staphylococcus aureus NRS-271 containing phage type E-MRSA 15 after 18 hrs by two-fold serial dilution method; format: functional; conditions: NRS-271, 18 h
Staphylococcus aureus [4] = test: Antistaphylococcal activity against gentamicin-resistant Staphylococcus aureus NRS-108 after 18 hrs by two-fold serial dilution method; format: functional; conditions: NRS-108, 18 h
Staphylococcus aureus [5] = test: Antistaphylococcal activity against oxacillin/tetracycline-resistant Staphylococcus aureus NRS-100 after 18 hrs by two-fold serial dilution method; format: functional; conditions: NRS-100, 18 h
Staphylococcus aureus [6] = test: Antistaphylococcal activity against erythromycin-resistant Staphylococcus aureus NRS-70 after 18 hrs by two-fold serial dilution method; format: functional; conditions: NRS-70, 18 h

SMILES	MIC (Staphylococcus aureus [1]) [µg/mL]	Activity (Escherichia coli)	MIC (Staphylococcus aureus [2]) [µg/mL]	MIC (Staphylococcus aureus [3]) [µg/mL]	MIC (Staphylococcus aureus [4]) [µg/mL]	MIC (Staphylococcus aureus [5]) [µg/mL]	MIC (Staphylococcus aureus [6]) [µg/mL]
CC(C)c1cc2c(cc1Br)[C@@]1(C)CCC[C@@](C)(C(=O)O)[C@@H]1C/C2=N\OCCNS(=O)(=O)c1ccc(Cl)nc1	3.13 to 6.25 (≈ 4.99 to 9.97 µM)	inactive					
Cc1ccccc1S(=O)(=O)NCCO/N=C1\C[C@H]2[C@](C)(C(=O)O)CCC[C@]2(C)c2cc(Br)c(C(C)C)cc21	1.56 to 3.13 (≈ 2.58 to 5.17 µM)	inactive	1.56 to 3.13 (≈ 2.58 to 5.17 µM)	1.56 to 3.13 (≈ 2.58 to 5.17 µM)	1.56 to 3.13 (≈ 2.58 to 5.17 µM)	3.13 to 6.25 (≈ 5.17 to 10.3 µM)	1.56 to 3.13 (≈ 2.58 to 5.17 µM)
CC(C)c1cc2c(cc1Br)[C@@]1(C)CCC[C@@](C)(C(=O)O)[C@@H]1C/C2=N\OCCNS(=O)(=O)c1ccc(Br)c(C(F)(F)F)c1	0.78 to 1.56 (≈ 1.06 to 2.11 µM)	inactive	0.78 to 1.56 (≈ 1.06 to 2.11 µM)	0.78 to 1.56 (≈ 1.06 to 2.11 µM)	0.78 to 1.56 (≈ 1.06 to 2.11 µM)	0.78 to 1.56 (≈ 1.06 to 2.11 µM)	0.78 to 1.56 (≈ 1.06 to 2.11 µM)
CN[C@H](CC(C)C)C(=O)N[C@H]1C(=O)N[C@@H](CC(N)=O)C(=O)N[C@H]2C(=O)N[C@H]3C(=O)N[C@H](C(=O)N[C@H](C(=O)O)c4cc(O)cc(O)c4-c4cc3ccc4O)[C@H](O)c3ccc(c(Cl)c3)Oc3cc2cc(c3O[C@@H]2O[C@H](CO)[C@@H](O)[C@H](O)[C@H]2O[C@H]2C[C@](C)(N)[C@H](O)[C@H](C)O2)Oc2ccc(cc2Cl)[C@H]1O [VANCOMYCIN]	0.78 to 1.56 (≈ 0.538 to 1.08 µM)		1.56 to 3.13 (≈ 1.08 to 2.16 µM)	0.39 to 0.78 (≈ 0.269 to 0.538 µM)	0.39 to 0.78 (≈ 0.269 to 0.538 µM)	0.39 to 0.78 (≈ 0.269 to 0.538 µM)	0.2 to 0.39 (≈ 0.138 to 0.269 µM)
CC(C)c1cc2c(cc1Br)[C@@]1(C)CCC[C@@](C)(C(=O)O)[C@@H]1C/C2=N\OCCNS(=O)(=O)c1ccccc1Cl	0.78 to 1.56 (≈ 1.25 to 2.49 µM)	inactive	1.56 to 3.13 (≈ 2.49 to 5 µM)	1.56 to 3.13 (≈ 2.49 to 5 µM)	1.56 to 3.13 (≈ 2.49 to 5 µM)	1.56 to 3.13 (≈ 2.49 to 5 µM)	0.78 to 1.56 (≈ 1.25 to 2.49 µM)
CC(C)c1cc2c(cc1Br)[C@@]1(C)CCC[C@@](C)(C(=O)O)[C@@H]1C/C2=N\OCCNS(=O)(=O)c1ccc(Cl)c(C(F)(F)F)c1	0.78 to 1.56 (≈ 1.12 to 2.25 µM)	inactive	12.5 to 25 (≈ 18 to 36 µM)	25 to 50 (≈ 36 to 72 µM)	0.78 to 1.56 (≈ 1.12 to 2.25 µM)	> 50	0.78 to 1.56 (≈ 1.12 to 2.25 µM)
CC(C)c1ccc2c(c1)CC[C@H]1[C@](C)(C(=O)O)CCC[C@]21C [DEHYDROABIETIC ACID]	12.5 to 20 (≈ 41.6 to 66.6 µM)		12.5 to 25 (≈ 41.6 to 83.2 µM)	12.5 to 25 (≈ 41.6 to 83.2 µM)	12.5 to 25 (≈ 41.6 to 83.2 µM)	12.5 to 25 (≈ 41.6 to 83.2 µM)	12.5 to 25 (≈ 41.6 to 83.2 µM)
CC(C)c1cc2c(cc1Br)[C@@]1(C)CCC[C@@](C)(C(=O)O)[C@@H]1C/C2=N\OCCNS(=O)(=O)c1cccc(Cl)c1	0.78 to 1.56 (≈ 1.25 to 2.49 µM)	inactive	1.56 to 3.13 (≈ 2.49 to 5 µM)	1.56 to 3.13 (≈ 2.49 to 5 µM)	1.56 to 3.13 (≈ 2.49 to 5 µM)	1.56 to 3.13 (≈ 2.49 to 5 µM)	0.78 to 1.56 (≈ 1.25 to 2.49 µM)
CC(C)c1cc2c(cc1Br)[C@@]1(C)CCC[C@@](C)(C(=O)O)[C@@H]1C/C2=N\OCCNS(=O)(=O)c1ccc(F)cc1	1.56 to 3.13 (≈ 2.56 to 5.13 µM)	inactive	1.56 to 3.13 (≈ 2.56 to 5.13 µM)	1.56 to 3.13 (≈ 2.56 to 5.13 µM)	1.56 to 3.13 (≈ 2.56 to 5.13 µM)	1.56 to 3.13 (≈ 2.56 to 5.13 µM)	1.56 to 3.13 (≈ 2.56 to 5.13 µM)
CC(C)c1cc2c(cc1Br)[C@@]1(C)CCC[C@@](C)(C(=O)O)[C@@H]1C/C2=N\OCCNS(=O)(=O)c1ccc(Cl)s1	1.56 to 3.13 (≈ 2.47 to 4.95 µM)	inactive	1.56 to 3.13 (≈ 2.47 to 4.95 µM)	1.56 to 3.13 (≈ 2.47 to 4.95 µM)	1.56 to 3.13 (≈ 2.47 to 4.95 µM)	1.56 to 3.13 (≈ 2.47 to 4.95 µM)	0.78 to 1.56 (≈ 1.23 to 2.47 µM)
CC(C)c1cc2c(cc1Br)[C@@]1(C)CCC[C@@](C)(C(=O)O)[C@@H]1C/C2=N\OCCNS(=O)(=O)c1cc(F)c(F)c(F)c1	> 50	inactive					
CC(C)c1cc2c(cc1Br)[C@@]1(C)CCC[C@@](C)(C(=O)O)[C@@H]1C/C2=N\OCCNS(=O)(=O)c1ccccc1C(F)(F)F	> 50	inactive					
CC(C)c1cc2c(cc1Br)[C@@]1(C)CCC[C@@](C)(C(=O)O)[C@@H]1C/C2=N\OCCNS(=O)(=O)c1cccnc1	3.13 to 6.25 (≈ 5.28 to 10.5 µM)	inactive					
CC(C)c1cc2c(cc1Br)[C@@]1(C)CCC[C@@](C)(C(=O)O)[C@@H]1C/C2=N\OCCNS(=O)(=O)c1ccc(Br)cc1	0.78 to 1.56 (≈ 1.16 to 2.33 µM)	inactive	0.78 to 1.56 (≈ 1.16 to 2.33 µM)	0.78 to 1.56 (≈ 1.16 to 2.33 µM)	0.78 to 1.56 (≈ 1.16 to 2.33 µM)	0.78 to 1.56 (≈ 1.16 to 2.33 µM)	0.78 to 1.56 (≈ 1.16 to 2.33 µM)
CC(C)c1cc2c(cc1Br)[C@@]1(C)CCC[C@@](C)(C(=O)O)[C@@H]1C/C2=N\OCCNS(=O)(=O)c1ccc2ccccc2c1	1.56 to 3.13 (≈ 2.43 to 4.88 µM)	inactive	3.13 to 6.25 (≈ 4.88 to 9.74 µM)	3.13 to 6.25 (≈ 4.88 to 9.74 µM)	1.56 to 3.13 (≈ 2.43 to 4.88 µM)	3.13 to 6.25 (≈ 4.88 to 9.74 µM)	1.56 to 3.13 (≈ 2.43 to 4.88 µM)
Cc1ccc(S(=O)(=O)NCCO/N=C2\C[C@H]3[C@](C)(C(=O)O)CCC[C@]3(C)c3cc(Br)c(C(C)C)cc32)cc1	1.56 to 3.13 (≈ 2.58 to 5.17 µM)	inactive	3.13 to 6.25 (≈ 5.17 to 10.3 µM)	3.13 to 6.25 (≈ 5.17 to 10.3 µM)	1.56 to 3.13 (≈ 2.58 to 5.17 µM)	3.13 to 6.25 (≈ 5.17 to 10.3 µM)	1.56 to 3.13 (≈ 2.58 to 5.17 µM)
CC(C)c1cc2c(cc1Br)[C@@]1(C)CCC[C@@](C)(C(=O)O)[C@@H]1C/C2=N\OCCNS(=O)(=O)c1ccc(Br)s1	1.56 to 3.13 (≈ 2.31 to 4.63 µM)	inactive	1.56 to 3.13 (≈ 2.31 to 4.63 µM)	1.56 to 3.13 (≈ 2.31 to 4.63 µM)	1.56 to 3.13 (≈ 2.31 to 4.63 µM)	1.56 to 3.13 (≈ 2.31 to 4.63 µM)	1.56 to 3.13 (≈ 2.31 to 4.63 µM)
